Source: the supplement of paper PMC5908809

Assays:
[1] = tested on: normal NK cells expanded with K562-aAPC; experiment: drug sensitivity score (DSS) (DSS units); higher = more sensitive; extreme values may be limits of the assay; conditions: 72 h; IL-2 2.5 ng/mL
Experimental: (§1)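 Drug sensitivity and resistance testing on K562-aAPC-expanded normal NK cells: 5 concentrations (10-fold steps over a 10,000-fold range), 72 h at 37 °C, viability by CellTiter-Glo normalised to DMSO and benzethonium chloride controls; DSS from the fitted curve.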

[2] = tested on: normal primary NK cells, pool 3 (3 donors) (IL-2 2.5 ng/mL); experiment: as above; conditions: 72 h
[3] = tested on: KAI3 (IL-2 2.5 ng/mL); experiment: as above; conditions: 72 h
[4] = tested on: normal primary NK cells, pool 1 (3 donors) (IL-2 2.5 ng/mL); experiment: as above; conditions: 72 h
[5] = tested on: SNK-6 (IL-2 2.5 ng/mL); experiment: as above; conditions: 72 h
[6] = tested on: KHYG-1 (IL-2 2.5 ng/mL); experiment: as above; conditions: 72 h
[7] = tested on: normal primary NK cells, pool 2 (3 donors) (IL-2 2.5 ng/mL); experiment: as above; conditions: 72 h
[8] = tested on: NK-92 (IL-2 2.5 ng/mL); experiment: as above; conditions: 72 h
[9] = tested on: YT (IL-2 2.5 ng/mL); experiment: as above; conditions: 72 h
[10] = tested on: DERL-7 (IL-2 2.5 ng/mL); experiment: as above; conditions: 72 h
[11] = tested on: normal primary NK cells, pool 1 (3 donors), resting (IL-2 0 ng/mL); experiment: as above; conditions: 72 h
[12] = tested on: NKL (IL-2 2.5 ng/mL); experiment: as above; conditions: 72 h
[13] = tested on: NK-YS (IL-2 2.5 ng/mL); experiment: as above; conditions: 72 h
[14] = tested on: IMC-1 (IL-2 20 ng/mL); experiment: as above; conditions: 72 h
[15] = tested on: normal NK cells expanded with K562-aAPC; experiment: percent inhibition of viability; higher = more inhibition; conditions: 72 h, IL-2 2.5 ng/mL
Experimental: as §1

[16] = tested on: normal primary NK cells, pool 3 (3 donors) (IL-2 2.5 ng/mL); experiment: as above; conditions: 72 h
[17] = tested on: KAI3 (IL-2 2.5 ng/mL); experiment: as above; conditions: 72 h
[18] = tested on: normal primary NK cells, pool 1 (3 donors) (IL-2 2.5 ng/mL); experiment: as above; conditions: 72 h
[19] = tested on: SNK-6 (IL-2 2.5 ng/mL); experiment: as above; conditions: 72 h
[20] = tested on: KHYG-1 (IL-2 2.5 ng/mL); experiment: as above; conditions: 72 h
[21] = tested on: normal primary NK cells, pool 2 (3 donors) (IL-2 2.5 ng/mL); experiment: as above; conditions: 72 h
[22] = tested on: NK-92 (IL-2 2.5 ng/mL); experiment: as above; conditions: 72 h
[23] = tested on: YT (IL-2 2.5 ng/mL); experiment: as above; conditions: 72 h
[24] = tested on: DERL-7 (IL-2 2.5 ng/mL); experiment: as above; conditions: 72 h
[25] = tested on: normal primary NK cells, pool 1 (3 donors), resting (IL-2 0 ng/mL); experiment: as above; conditions: 72 h
[26] = tested on: NKL (IL-2 2.5 ng/mL); experiment: as above; conditions: 72 h
[27] = tested on: NK-YS (IL-2 2.5 ng/mL); experiment: as above; conditions: 72 h
[28] = tested on: IMC-1 (IL-2 20 ng/mL); experiment: as above; conditions: 72 h

Cc1ncc(-c2ccnc(Nc3ccc(S(C)(=O)=O)cc3)n2)n1C(C)C [AZD-5438] (max concentration tested 10000 nM)
Conditions	drug sensitivity score
[1]	6.5
[2]	8.5
[3]	11
[4]	7.3
[5]	3.04
[6]	11.3
[7]	7.94
[8]	5.86
[9]	9.28
[10]	10
[11]	3.02
[12]	6.34
[13]	12.6
[14]	10.5

percent inhibition of viability [%]
Conditions	1 nM	10 nM	100 nM	1000 nM	10000 nM
[15]	0.15	-0.53	-5.24	6.05	101
[16]	-7.04	-10.4	1.54	18.4	99.4
[17]	-3.46	-9.8	-5.74	41.5	102
[18]	-7.21	-12.4	-17.5	11.4	98
[19]	-9.66	-5.34	6.52	-1.33	58.4
[20]	0.77	0.77	0.38	45.4	105
[21]	-12.1	-8.8	-8.52	15.6	96.9
[22]	-5.15	-8.65	-22.7	-0.77	104
[23]	-1.56	-0.25	0.72	24	105
[24]	-5.59	2.74	-9.82	31.4	100
[25]	4.17	-8.18	-42.6	-99.9	91.4
[26]	-7.07	-5.93	-18.1	3.89	103
[27]	-2.69	-3.59	1.96	59.8	103
[28]	-2.44	-0.85	6.12	39.1	101

C[C@@H]1COC(Nc2ccc3ncnc(Nc4ccc(OCc5nccs5)c(Cl)c4)c3c2)=N1 [Varlitinib] (max concentration tested 10000 nM)
Conditions	drug sensitivity score
[1]	0
[2]	0
[3]	0
[4]	0
[5]	8.77
[6]	1.18
[7]	0
[8]	2.45
[9]	0.09
[10]	0
[11]	0
[12]	1.5
[13]	0.1
[14]	2.92

percent inhibition of viability [%]
Conditions	1 nM	10 nM	100 nM	1000 nM	10000 nM
[15]	-1.48	1.48	0.78	6.23	6.06
[16]	-15.9	-6.58	-0.23	-16.5	3.13
[17]	0.52	0.69	-2.99	5.18	9.75
[18]	-1.41	-12.3	1.76	-7.07	4.85
[19]	7.32	23.1	18.9	25.6	29.6
[20]	0.82	-0.44	4.79	10.6	19.4
[21]	-7.11	-4.04	6.91	1.02	9.32
[22]	-5.14	-6.85	0.79	4.69	35.3
[23]	3.61	0.68	4.78	8.48	12.2
[24]	1.37	-3.89	-4.97	-5.43	-2.66
[25]	-8.46	-19.4	-14.8	-23.5	-3.47
[26]	1.14	7.53	8.83	12.6	17.6
[27]	2.18	-3.81	2.34	4.33	12.3
[28]	-2.91	6.3	4.06	14.6	34
